From patent US9688653B2, “Ethoxyphenyl thienyl compounds and methods for the treatment of bacterial infections” (Duke University, priority 2013, dated 2017)

Columns and labels:
panel of 68 receptors [1] = target: panel of 68 receptors (Homo sapiens, UniProt P20309); conditions: Muscarinic M3, hum, 10 μM
panel of 68 receptors [2] = target: panel of 68 receptors (Homo sapiens, UniProt P35462); conditions: Dopamine D3, hum, 10 μM
panel of 68 receptors [3] = target: panel of 68 receptors (Homo sapiens, UniProt P08588); conditions: Adrenergic β1, hum, 10 μM
panel of 68 receptors [4] = target: panel of 68 receptors (Rattus norvegicus, UniProt Q02294); conditions: Calcium Channel N-Type, rat, 10 μM
Chain of panel of 68 receptors (Rattus norvegicus, UniProt Q02294) (Q02294 whole entry): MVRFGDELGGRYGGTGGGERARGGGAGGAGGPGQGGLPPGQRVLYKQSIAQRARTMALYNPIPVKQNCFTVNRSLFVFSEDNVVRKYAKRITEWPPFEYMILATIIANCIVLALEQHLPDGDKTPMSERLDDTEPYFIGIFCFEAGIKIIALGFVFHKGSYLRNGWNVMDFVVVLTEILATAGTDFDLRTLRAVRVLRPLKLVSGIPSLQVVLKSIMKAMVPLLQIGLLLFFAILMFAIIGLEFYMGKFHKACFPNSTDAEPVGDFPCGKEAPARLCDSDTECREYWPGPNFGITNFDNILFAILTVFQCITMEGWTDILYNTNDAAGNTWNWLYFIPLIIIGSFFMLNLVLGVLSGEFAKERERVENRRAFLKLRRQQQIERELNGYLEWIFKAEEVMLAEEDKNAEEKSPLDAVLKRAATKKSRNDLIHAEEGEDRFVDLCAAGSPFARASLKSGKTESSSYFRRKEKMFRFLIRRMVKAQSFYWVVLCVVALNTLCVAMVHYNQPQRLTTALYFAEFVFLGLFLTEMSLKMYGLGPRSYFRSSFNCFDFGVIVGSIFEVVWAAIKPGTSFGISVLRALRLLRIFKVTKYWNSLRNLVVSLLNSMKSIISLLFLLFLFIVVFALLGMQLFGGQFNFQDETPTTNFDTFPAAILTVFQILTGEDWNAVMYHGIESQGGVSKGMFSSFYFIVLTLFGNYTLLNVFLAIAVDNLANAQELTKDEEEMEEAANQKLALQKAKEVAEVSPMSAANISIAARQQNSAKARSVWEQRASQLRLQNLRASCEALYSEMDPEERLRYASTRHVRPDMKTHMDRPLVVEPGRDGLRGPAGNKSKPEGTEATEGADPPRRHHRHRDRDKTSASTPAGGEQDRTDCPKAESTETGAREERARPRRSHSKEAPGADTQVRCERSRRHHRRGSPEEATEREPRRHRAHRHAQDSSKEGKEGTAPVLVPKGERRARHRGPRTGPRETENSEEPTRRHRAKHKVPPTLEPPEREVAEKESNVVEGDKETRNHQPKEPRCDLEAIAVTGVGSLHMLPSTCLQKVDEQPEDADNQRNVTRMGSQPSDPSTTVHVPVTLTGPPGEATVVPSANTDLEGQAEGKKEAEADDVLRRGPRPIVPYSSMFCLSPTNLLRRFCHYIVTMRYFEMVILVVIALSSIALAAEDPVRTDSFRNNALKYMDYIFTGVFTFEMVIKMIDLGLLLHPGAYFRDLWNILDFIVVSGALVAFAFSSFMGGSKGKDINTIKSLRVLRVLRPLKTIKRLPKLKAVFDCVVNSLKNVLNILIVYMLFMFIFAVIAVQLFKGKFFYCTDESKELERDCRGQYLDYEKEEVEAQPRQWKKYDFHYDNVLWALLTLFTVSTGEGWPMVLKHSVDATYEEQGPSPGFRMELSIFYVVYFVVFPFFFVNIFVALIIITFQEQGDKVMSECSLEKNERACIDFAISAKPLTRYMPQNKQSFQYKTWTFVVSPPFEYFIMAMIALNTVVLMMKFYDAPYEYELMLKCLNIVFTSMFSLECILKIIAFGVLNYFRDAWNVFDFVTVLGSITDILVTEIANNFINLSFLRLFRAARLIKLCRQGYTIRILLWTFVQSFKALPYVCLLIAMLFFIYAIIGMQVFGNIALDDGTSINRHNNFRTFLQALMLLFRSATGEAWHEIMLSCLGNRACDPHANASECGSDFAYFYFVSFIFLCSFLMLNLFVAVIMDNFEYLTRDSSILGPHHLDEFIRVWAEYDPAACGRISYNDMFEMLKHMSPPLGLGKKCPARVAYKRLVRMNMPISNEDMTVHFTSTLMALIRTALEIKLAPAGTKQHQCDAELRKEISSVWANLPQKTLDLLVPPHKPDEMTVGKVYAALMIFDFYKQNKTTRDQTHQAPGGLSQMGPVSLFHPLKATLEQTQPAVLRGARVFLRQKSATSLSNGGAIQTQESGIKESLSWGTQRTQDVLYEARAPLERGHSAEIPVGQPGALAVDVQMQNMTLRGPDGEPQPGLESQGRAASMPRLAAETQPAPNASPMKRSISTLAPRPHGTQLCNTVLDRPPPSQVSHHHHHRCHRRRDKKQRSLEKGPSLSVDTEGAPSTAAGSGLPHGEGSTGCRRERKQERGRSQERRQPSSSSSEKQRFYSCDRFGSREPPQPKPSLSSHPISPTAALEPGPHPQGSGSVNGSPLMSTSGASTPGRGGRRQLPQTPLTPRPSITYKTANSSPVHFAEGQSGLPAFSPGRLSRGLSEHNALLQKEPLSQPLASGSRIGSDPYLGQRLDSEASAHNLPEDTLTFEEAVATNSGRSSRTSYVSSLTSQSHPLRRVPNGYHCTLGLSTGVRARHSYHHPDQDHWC

panel of 68 receptors [5] = target: panel of 68 receptors (Homo sapiens, UniProt P46663); conditions: Bradykinin B1, hum, 10 μM
panel of 68 receptors [6] = target: panel of 68 receptors (Rattus norvegicus, UniProt P15823); conditions: Adrenergic α1B, rat, 10 μM
panel of 68 receptors [7] = target: panel of 68 receptors (Homo sapiens, UniProt P24530); conditions: Endothelin ETB, hum, 10 μM
panel of 68 receptors [8] = target: panel of 68 receptors (Homo sapiens, UniProt P35372); conditions: Opiate μ(OP3, MOP), hum, 10 μM
panel of 68 receptors [9] = target: panel of 68 receptors (Homo sapiens, UniProt P29274); conditions: Adenosine A2A, hum, 10 μM
panel of 68 receptors [10] = target: panel of 68 receptors (Homo sapiens, UniProt Q9Y5N1); conditions: Histamine H3, hum, 10 μM
Chain of panel of 68 receptors (Homo sapiens, UniProt Q9Y5N1) (Q9Y5N1 whole entry): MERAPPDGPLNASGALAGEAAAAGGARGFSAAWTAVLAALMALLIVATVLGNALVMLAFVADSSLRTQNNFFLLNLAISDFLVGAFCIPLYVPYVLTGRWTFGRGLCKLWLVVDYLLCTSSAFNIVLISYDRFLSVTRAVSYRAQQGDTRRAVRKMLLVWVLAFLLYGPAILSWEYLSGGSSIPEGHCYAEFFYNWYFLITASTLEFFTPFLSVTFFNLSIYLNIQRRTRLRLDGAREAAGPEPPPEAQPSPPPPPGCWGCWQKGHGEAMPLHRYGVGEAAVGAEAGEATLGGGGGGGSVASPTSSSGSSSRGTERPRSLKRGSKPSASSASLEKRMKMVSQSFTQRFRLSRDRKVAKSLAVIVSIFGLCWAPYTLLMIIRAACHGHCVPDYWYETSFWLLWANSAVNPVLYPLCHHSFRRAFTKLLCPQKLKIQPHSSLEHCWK

panel of 68 receptors [11] = target: panel of 68 receptors (Homo sapiens, UniProt P35408); conditions: Prostanoid EP4, hum, 10 μM
panel of 68 receptors [12] = target: panel of 68 receptors (Homo sapiens, UniProt P0DMS8); conditions: Adenosine A3, hum, 10 μM
Chain of panel of 68 receptors (Homo sapiens, UniProt P0DMS8) (P0DMS8 whole entry): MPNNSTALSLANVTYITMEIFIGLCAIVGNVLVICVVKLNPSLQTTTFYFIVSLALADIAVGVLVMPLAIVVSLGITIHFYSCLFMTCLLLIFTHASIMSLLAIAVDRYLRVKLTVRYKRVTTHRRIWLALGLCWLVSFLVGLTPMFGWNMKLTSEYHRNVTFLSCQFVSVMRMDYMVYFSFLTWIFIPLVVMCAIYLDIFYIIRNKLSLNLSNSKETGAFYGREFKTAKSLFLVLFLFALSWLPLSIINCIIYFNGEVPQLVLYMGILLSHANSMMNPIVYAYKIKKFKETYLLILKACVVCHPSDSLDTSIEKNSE

panel of 68 receptors [13] = target: panel of 68 receptors (Homo sapiens, UniProt P48039); conditions: Melatonin MT1, hum, 10 μM
panel of 68 receptors [14] = target: panel of 68 receptors (Homo sapiens, UniProt P04150); conditions: Glucocorticoid, hum, 10 μM
panel of 68 receptors [15] = target: panel of 68 receptors (Rattus norvegicus, UniProt P15207); conditions: Androgen (Testosterone) AR, rat, 10 μM
panel of 68 receptors [16] = target: panel of 68 receptors (Homo sapiens, UniProt P25101); conditions: Endothelin ETA, hum, 10 μM
Chain of panel of 68 receptors (Homo sapiens, UniProt P25101) (P25101 21-427): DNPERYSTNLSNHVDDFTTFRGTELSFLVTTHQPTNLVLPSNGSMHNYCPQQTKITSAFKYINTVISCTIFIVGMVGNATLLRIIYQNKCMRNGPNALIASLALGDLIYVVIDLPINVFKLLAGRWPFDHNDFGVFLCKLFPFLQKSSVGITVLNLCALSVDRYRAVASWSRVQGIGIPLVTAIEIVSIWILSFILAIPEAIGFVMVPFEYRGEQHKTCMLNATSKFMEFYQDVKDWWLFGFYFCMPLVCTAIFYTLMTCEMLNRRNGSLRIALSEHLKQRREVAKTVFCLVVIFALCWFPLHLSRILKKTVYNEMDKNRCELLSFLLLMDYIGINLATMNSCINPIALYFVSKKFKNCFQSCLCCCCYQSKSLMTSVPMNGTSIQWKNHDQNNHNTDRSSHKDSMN

panel of 68 receptors [17] = target: panel of 68 receptors (Homo sapiens, UniProt Q9UBS5); conditions: GABAB1A, hum, 10 μM
panel of 68 receptors [18] = target: panel of 68 receptors (Homo sapiens, UniProt Q12809); conditions: Potassium Channel hERG, hum, 10 μM
panel of 68 receptors [19] = target: panel of 68 receptors (Homo sapiens, UniProt P35367); conditions: Histamine H1, hum, 10 μM
panel of 68 receptors [20] = target: panel of 68 receptors (Homo sapiens, UniProt Q9Y271); conditions: Leukotriene, Cysteinyl CysLT1, hum, 10 μM
panel of 68 receptors [21] = target: panel of 68 receptors (Homo sapiens, UniProt P07550); conditions: Adrenergic β2, hum, 10 μM
panel of 68 receptors [22] = target: panel of 68 receptors (Homo sapiens, UniProt P25105); conditions: Platelet Activating Factor (PAF), hum, 10 μM
panel of 68 receptors [23] = target: panel of 68 receptors (Homo sapiens, UniProt P30411); conditions: Bradykinin B2, hum, 10 μM
panel of 68 receptors [24] = target: panel of 68 receptors (Homo sapiens, UniProt P21554); conditions: Cannabinoid CB1, hum, 10 μM
panel of 68 receptors [25] = target: panel of 68 receptors (Homo sapiens, UniProt Q01959); conditions: Transporter, Dopamine (DAT), hum, 10 μM
panel of 68 receptors [26] = target: panel of 68 receptors (Homo sapiens, UniProt P08913); conditions: Adrenergic α2A, hum, 10 μM
Chain of panel of 68 receptors (Homo sapiens, UniProt P08913) (P08913 whole entry): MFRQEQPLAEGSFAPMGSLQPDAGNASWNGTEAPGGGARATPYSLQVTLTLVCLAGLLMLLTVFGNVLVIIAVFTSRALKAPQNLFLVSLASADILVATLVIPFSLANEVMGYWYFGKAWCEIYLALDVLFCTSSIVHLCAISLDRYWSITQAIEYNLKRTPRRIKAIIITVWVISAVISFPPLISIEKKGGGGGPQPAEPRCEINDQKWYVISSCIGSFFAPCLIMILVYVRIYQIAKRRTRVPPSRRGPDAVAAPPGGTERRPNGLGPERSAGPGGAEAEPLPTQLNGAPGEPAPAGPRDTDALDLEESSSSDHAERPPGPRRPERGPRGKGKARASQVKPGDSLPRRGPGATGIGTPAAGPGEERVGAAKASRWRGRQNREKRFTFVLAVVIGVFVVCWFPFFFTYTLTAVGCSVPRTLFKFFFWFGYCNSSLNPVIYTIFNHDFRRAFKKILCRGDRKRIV

panel of 68 receptors [27] = target: panel of 68 receptors (Homo sapiens, UniProt P02708); conditions: Nicotinic Acetylcholine α1, Bungarotoxin, hum, 10 μM
panel of 68 receptors [28] = target: panel of 68 receptors (Homo sapiens, UniProt P25021); conditions: Histamine H2, hum, 10 μM
panel of 68 receptors [29] = target: panel of 68 receptors (Rattus norvegicus, UniProt P43140); conditions: Adrenergic α1A, rat, 10 μM
panel of 68 receptors [30] = target: panel of 68 receptors (Homo sapiens, UniProt P41145); conditions: Opiate κ(OP2, KOP), hum, 10 μM
panel of 68 receptors [31] = target: panel of 68 receptors (Homo sapiens, UniProt P11229); conditions: Muscarinic M1, hum, 10 μM
Chain of panel of 68 receptors (Homo sapiens, UniProt P11229) (P11229 whole entry): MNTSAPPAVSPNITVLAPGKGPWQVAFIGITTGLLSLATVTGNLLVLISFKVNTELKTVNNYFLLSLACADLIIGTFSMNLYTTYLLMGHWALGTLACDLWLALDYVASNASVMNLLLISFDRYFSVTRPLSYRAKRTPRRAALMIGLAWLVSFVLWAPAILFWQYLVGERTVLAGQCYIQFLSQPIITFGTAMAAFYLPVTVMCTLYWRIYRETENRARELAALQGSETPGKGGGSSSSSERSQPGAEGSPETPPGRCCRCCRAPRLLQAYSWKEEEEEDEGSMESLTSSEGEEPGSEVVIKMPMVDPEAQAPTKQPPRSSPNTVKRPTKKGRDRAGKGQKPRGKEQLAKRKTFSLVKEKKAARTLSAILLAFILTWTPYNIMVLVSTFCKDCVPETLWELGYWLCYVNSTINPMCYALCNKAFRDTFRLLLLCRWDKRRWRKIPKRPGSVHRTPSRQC

panel of 68 receptors [32] = target: panel of 68 receptors (Homo sapiens, UniProt P46098); conditions: Serotonin (5-Hydroxytryptamine) 5-HT3, hum, 10 μM
panel of 68 receptors [33] = target: panel of 68 receptors (Homo sapiens, UniProt P21728); conditions: Dopamine D1, hum, 10 μM
panel of 68 receptors [34] = target: panel of 68 receptors (Homo sapiens, UniProt P49146); conditions: Neuropeptide Y Y2, hum, 10 μM
Chain of panel of 68 receptors (Homo sapiens, UniProt P49146) (P49146 whole entry): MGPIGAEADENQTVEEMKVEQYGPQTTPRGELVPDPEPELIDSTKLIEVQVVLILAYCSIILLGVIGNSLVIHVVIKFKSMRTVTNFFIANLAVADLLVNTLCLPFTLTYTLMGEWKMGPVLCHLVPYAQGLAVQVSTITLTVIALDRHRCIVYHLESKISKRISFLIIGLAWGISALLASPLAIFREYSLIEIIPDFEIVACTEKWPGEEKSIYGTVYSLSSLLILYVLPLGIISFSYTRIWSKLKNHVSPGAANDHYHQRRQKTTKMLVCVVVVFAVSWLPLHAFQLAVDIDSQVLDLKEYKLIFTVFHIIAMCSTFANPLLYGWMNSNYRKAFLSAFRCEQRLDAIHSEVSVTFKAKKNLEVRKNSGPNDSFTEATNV

CCOc1ccc(-c2cc(NC(=O)c3c(F)cccc3F)c(C(=O)O)s2)cc1 [KUC107784N-02]
% Inh. (panel of 68 receptors [1]): 14% | % Inh. (panel of 68 receptors [2]): 4% | % Inh. (panel of 68 receptors [3]): 2% | % Inh. (panel of 68 receptors [4]): −16% | % Inh. (panel of 68 receptors [5]): 3% | % Inh. (panel of 68 receptors [6]): 0% | % Inh. (panel of 68 receptors [7]): 3% | % Inh. (panel of 68 receptors [8]): 3% | % Inh. (panel of 68 receptors [9]): 19% | % Inh. (panel of 68 receptors [10]): 14% | % Inh. (panel of 68 receptors [11]): −4% | % Inh. (panel of 68 receptors [12]): 29% | % Inh. (panel of 68 receptors [13]): 3% | % Inh. (panel of 68 receptors [14]): −2% | % Inh. (panel of 68 receptors [15]): −5% | % Inh. (panel of 68 receptors [16]): 8% | % Inh. (panel of 68 receptors [17]): 5% | % Inh. (panel of 68 receptors [18]): −11% | % Inh. (panel of 68 receptors [19]): 2% | % Inh. (panel of 68 receptors [20]): 0% | % Inh. (panel of 68 receptors [21]): 3% | % Inh. (panel of 68 receptors [22]): 4% | % Inh. (panel of 68 receptors [23]): 6% | % Inh. (panel of 68 receptors [24]): 13% | % Inh. (panel of 68 receptors [25]): 8% | % Inh. (panel of 68 receptors [26]): −1% | % Inh. (panel of 68 receptors [27]): 8% | % Inh. (panel of 68 receptors [28]): 2% | % Inh. (panel of 68 receptors [29]): 16% | % Inh. (panel of 68 receptors [30]): 14% | % Inh. (panel of 68 receptors [31]): 1% | % Inh. (panel of 68 receptors [32]): −11% | % Inh. (panel of 68 receptors [33]): 5% | % Inh. (panel of 68 receptors [34]): −3%
